US20250129104A1, “7H-PYRROLO[2,3-D]PYRIMIDINES AND PREPARATION AND USES THEREOF” (BioSplice Therapeutics, Inc., priority 2021, published 2025)

What was measured:
[1] = molecular target: recombinant DYRK1A kinase (Homo sapiens (Human), UniProt Q13627); experiment: DYRK1A kinase assay (Ser/Thr 18 peptide Z-lyte FRET assay); type: biochemical; conditions: DYRK1A kinase activity; 15 μM ATP, 1 h room temperature; method text calls the value IC50
How it was run: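 Recombinant human DYRK1A (0.25 μg/mL) with 15 μM ATP and 4 μM Ser/Thr 18 peptide, 1 h at room temperature with compound (11-point, 1:3, 10 μM top, duplicate). Z-lyte development 1 h, then coumarin/fluorescein FRET emission ratio converted to % phosphorylation; IC50 by non-linear regression.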

[2] = tested on: Tau phosphorylation at Thr212 (pThr212); experiment: tau phosphorylation assay: phosphoTau (Thr212) AlphaLISA in HEK293T cells transfected with DYRK1A and MAPT; type: cell-based; conditions: HEK-293T; HEK293T cells transfected with human DYRK1A and MAPT; 18-24 h compound treatment; read-out: pTau (Thr212) EC50
Procedure: Representative compounds were screened using the assay procedure for tau phosphorylation activity described below.
HEK293T cells (ATCC, CRL3216) cultured in DMEM (Thermo Fisher Scientific, 10566024) supplemented with 10% FBS (Corning, 35-011-CV) and Penicillin/Streptomycin (Thermo Fisher Scientific, 15140163) were seeded in a 75 cm^2 flask at 8.1×10^6 cells/flask. The HEK293T cells were then transiently transfected with 5 μg DYRK1A (NM_001396) human untagged clone (OriGene, SC314641) and 2.5 μg MAPT (441 a.a. Tau gene) (NM_005910) human untagged clone (OriGene, TP313312) using Lipofectamine 3000 (Thermo Fisher Scientific, L30000015) and incubated for 20-30 hours in a humidified incubator at 37° C. and 5% CO2. Post-incubation, HEK293T cells transfected with the DYRK1A and MAPT expression vectors were harvested and seeded in BioCoat poly-D lysine coated 96-well plates (Corning, 354461) at 3×10^4 cells/well.
The above synthesized compounds were screened using the cell assay procedure to assess decreased Tau phosphorylation at Thr212 (pThr212) described below.
Each compound was dissolved in DMSO (Sigma-Aldrich, D8418-100 mL) as a 10 mM stock. 10 mM stocks were serially diluted 1:3, 10-point dose-response curve and added to the cells with a final concentration ranging from 20 μM to 1.1 nM. Cell were treated with compounds in duplicate and incubated for 18-24 hours in a humidified incubator at 37° C. and 5% CO2.
Following the overnight compound treatment, cells were lysed with 1× Alpha Surefire Ultra Lysis Buffer (Perkin Elmer, ALSU-LB-100ML) complemented with 1× Halt Phosphatase Inhibitor Cocktail (Thermo Fisher Scientific, 78427) and 1× Halt Protease Inhibitor Cocktail (Thermo Fisher Scientific, 78438). Lysates were spun down at 12,000 g for 10 min to remove any cellular debris and 5 μL of lysates were dispensed into a 384-well Opti-Plate (Perkin Elmer, 6007290) for the measurement of Tau phosphorylation in the phosphoTau (Thr212) AlphaLISA assay. Donor antibody, biotinylated HT7Tau (Thermo Fisher Scientific, MN1000B), and acceptor antibody, pThr212Tau (Thermo Fisher Scientific, 44740G) were both added to the cell lysates at a final concentration of 3 nM and incubated for 1 hour at room temperature. Following incubation of the lysates with the donor and acceptor antibodies, anti-rabbit IgG (Fc specific) AlphaLISA acceptor beads (Perkin Elmer, AL104C) were added at a 10 μg/mL final concentration and incubated for 1 hour at room temperature protected from light. Lastly, AlphaScreen streptavidin donor beads (PerkinElmer, 6760002) were added at 40 μg/mL final concentration and incubated for 1 hour at room temperature protected from light. Plates were read at […], and Em=615 nm on the EnVision Multilabel Plate Reader (Perkin Elmer). PhosphoTau (Thr212) AlphaLISA signal was used to plot, draw the curve fitting, and determine each compound's EC50 in Prism (GraphPad).

SMILES | EC50 [1] | EC50 [2]
Cc1nc2ccc(-c3c[nH]c4nc(NCC(C)(C)F)ncc34)nc2n1C [Compound 629, 5-(2,3-Dimethyl-3H-imidazo[4,5-b]pyridin-5-yl)-N-(2-fluoro-2-methylpropyl)-7H-pyrrolo[2,3-d]pyrimidin-2-amine] | 531 nM | 28 nM
CC(C)(F)CNc1ncc2c(-c3cnc4nccn4c3)c[nH]c2n1 [Compound 460, N-(2-Fluoro-2-methylpropyl)-5-(imidazo[1,2-a]pyrimidin-6-yl)-7H-pyrrolo [2,3-d]pyrimidin-2-amine] | 1.5 nM | 57 nM
CC(C)Nc1ncc2c(-c3ccc4ncnn4c3)c[nH]c2n1 [Compound 726, 5-([1,2,4]Triazolo[1,5-a]pyridin-6-yl)-N-isopropyl-7H-pyrrolo[2,3-d]pyrimidin-2-amine] | 22.4 nM | 815 nM
FC(F)(F)C1(CNc2ncc3c(-c4ccn5nccc5n4)c[nH]c3n2)CC1 [Compound 1659, 5-(Pyrazolo[1,5-a]pyrimidin-5-yl)-N-((1-(trifluoromethyl)cyclopropyl)methyl)-7H-pyrrolo[2,3-d]pyrimidin-2-amine] | 19.9 nM | 141 nM
COc1nc(CC(C)C)nc2[nH]cc(-c3ccn4nccc4c3)c12 [Compound 1113, 2-Isobutyl-4-methoxy-5-(pyrazolo[1,5-a]pyridin-5-yl)-7H-pyrrolo[2,3-d]pyrimidine] | 9.2 nM | 572 nM
CO[C@H]1C[C@@H](Nc2ncc3c(-c4ccn5nccc5c4)c[nH]c3n2)C1 [Compound 1140, N-(cis-3-Methoxycyclobutyl)-5-(pyrazolo[1,5-a]pyridin-5-yl)-7H-pyrrolo [2,3-d]pyrimidin-2-amine] | 2.6 nM | 6 nM
CC(C)(F)CNc1ncc2c(-c3ccn4ncc(C(=O)N5CCCCC5)c4c3)c[nH]c2n1 [Compound 1214, (5-(2-((2-Fluoro-2-methylpropyl)amino)-7H-pyrrolo[2,3-d]pyrimidin-5-yl)pyrazolo[1,5-a]pyridin-3-yl)(piperidin-1-yl)methanone] | 9.7 nM | 219 nM
C[C@@H](Nc1ncc2c(-c3ccc4nccn4n3)c[nH]c2n1)C(F)(F)F [Compound 912, (R)-5-(Imidazo[1,2-b]pyridazin-6-yl)-N-(1,1,1-trifluoropropan-2-yl)-7H-pyrrolo[2,3-d]pyrimidin-2-amine] | 5.5 nM | 96 nM
FC(F)(F)C1(CNc2ncc3c(-c4ccc5nccn5n4)c[nH]c3n2)CC1 [Compound 920, 5-(Imidazo[1,2-b]pyridazin-6-yl)-N-((1-(trifluoromethyl)cyclopropyl)methyl)-7H-pyrrolo[2,3-d]pyrimidin-2-amine] | 6.1 nM | 70 nM
FC1(F)CCC(Nc2ncc3c(-c4ccc5nccn5n4)c[nH]c3n2)CC1 [Compound 924, N-(4,4-Difluorocyclohexyl)-5-(imidazo[1,2-b]pyridazin-6-yl)-7H-pyrrolo [2,3-d]pyrimidin-2-amine] | 3.2 nM | 20 nM
CO[C@H]1CC[C@@H](Nc2ncc3c(-c4ccc5nccn5n4)c[nH]c3n2)CC1 [Compound 925, 5-(Imidazo[1,2-b]pyridazin-6-yl)-N-(cis-4-methoxycyclohexyl)-7H-pyrrolo[2,3-d]pyrimidin-2-amine] | 3.2 nM | 25 nM
FC1(F)CCC(Nc2ncc3c(-c4ccc5ncnn5c4)c[nH]c3n2)CC1 [Compound 746, 5-([1,2,4]Triazolo[1,5-a]pyridin-6-yl)-N-(4,4-difluorocyclohexyl)-7H-pyrrolo [2,3-d]pyrimidin-2-amine] | 29.2 nM | 521 nM
CO[C@H]1CC[C@@H](Nc2ncc3c(-c4ccc5nccnc5c4)c[nH]c3n2)CC1 [Compound 1929, N-(cis-4-Methoxycyclohexyl)-5-(quinoxalin-6-yl)-7H-pyrrolo[2,3-d]pyrimidin-2-amine] | 5.3 nM | 10 nM
FC1(F)CCC(CNc2ncc3c(-c4ccc5ncnn5c4)c[nH]c3n2)CC1 [Compound 749, 5-([1,2,4]Triazolo[1,5-a]pyridin-6-yl)-N-((4,4-difluorocyclohexyl)methyl)-7H-pyrrolo[2,3-d]pyrimidin-2-amine] | 7 nM | 80 nM
Cc1cnc2ccc(-c3c[nH]c4nc(NCC(C)(C)F)ncc34)nn12 [Compound 1038, N-(2-Fluoro-2-methylpropyl)-5-(3-methylimidazo[1,2-b]pyridazin-6-yl)-7H-pyrrolo[2,3-d]pyrimidin-2-amine] | 4.2 nM | 33 nM
CN1CCC(Nc2ncc3c(-c4ccn5ncc(C(=O)Nc6cccnc6)c5c4)c[nH]c3n2)CC1 [Compound 1624, 5-(2-((1-Methylpiperidin-4-yl)amino)-7H-pyrrolo[2,3-d]pyrimidin-5-yl)-N-(pyridin-3-yl)pyrazolo[1,5-a]pyridine-3-carboxamide] | 3.7 nM | 3910 nM
CC(C)(F)CNc1ncc2c(-c3ccc4nccn4n3)c[nH]c2n1 [Compound 909, N-(2-Fluoro-2-methylpropyl)-5-(imidazo[1,2-b]pyridazin-6-yl)-7H-pyrrolo [2,3-d]pyrimidin-2-amine] | 3.4 nM | 40 nM

Results, then the compound that gave them:

EC50 [1] | EC50 [2] | SMILES
14.6 nM | 141 nM | O=C(NCC(F)F)c1cnn2ccc(-c3c[nH]c4nc(C5CCC5)ncc34)cc12 [Compound 1250, 5-(2-Cyclobutyl-7H-pyrrolo[2,3-d]pyrimidin-5-yl)-N-(2,2-difluoroethyl) pyrazolo[1,5-a]pyridine-3-carboxamide]
19.8 nM | 338 nM | Cc1nc2c(F)cc(-c3c[nH]c4nc(C5CCC5)ncc34)cc2n1C(C)C [Compound 500, 2-Cyclobutyl-5-(4-fluoro-1-isopropyl-2-methyl-1H-benzo[d]imidazol-6-yl)-7H-pyrrolo[2,3-d]pyrimidine]
9.8 nM | 25 nM | CO[C@H]1CC[C@@H](Nc2ncc3c(-c4ccc5nnn(C)c5c4)c[nH]c3n2)CC1 [Compound 838, N-(cis-4-Methoxycyclohexyl)-5-(1-methyl-1H-benzo[d][1,2,3]triazol-6-yl)-7H-pyrrolo[2,3-d]pyrimidin-2-amine]
6 nM | 296 nM | Cc1nc2c(F)cc(-c3c[nH]c4nc(C5CC5)ncc34)cc2n1C(C)C [Compound 499, 2-Cyclopropyl-5-(4-fluoro-1-isopropyl-2-methyl-1H-benzo[d]imidazol-6-yl)-7H-pyrrolo[2,3-d]pyrimidine]
7.3 nM | 165 nM | C[C@@H](Nc1ncc2c(-c3ccc4nnn(C)c4c3)c[nH]c2n1)C1CC1 [Compound 831, (R)—N-(1-Cyclopropylethyl)-5-(1-methyl-1H-benzo[d][1,2,3]triazol-6-yl)-7H-pyrrolo[2,3-d]pyrimidin-2-amine]
21.9 nM | 4500 nM | c1cn2cc(-c3c[nH]c4nc(C5CCC5)ncc34)ccc2n1 [Compound 103, 2-cyclobutyl-5-(imidazo[1,2-a]pyridin-6-yl)-7H-pyrrolo[2,3-d]pyrimidine]
24.9 nM | 386 nM | c1cc2cc(-c3c[nH]c4nc(C5CC5)ncc34)ccn2n1 [Compound 1115, 2-Cyclopropyl-5-(pyrazolo[1,5-a]pyridin-5-yl)-7H-pyrrolo[2,3-d]pyrimidine]
15.5 nM | 49 nM | CC(C)(F)CNc1ncc2c(-c3cc(F)c4nccn4c3)c[nH]c2n1 [Compound 199, N-(2-Fluoro-2-methylpropyl)-5-(8-fluoroimidazo[1,2-a]pyridin-6-yl)-7H-pyrrolo[2,3-d]pyrimidin-2-amine]
